Read-outs that look alike come from different tables or passages of the source.
How the values were obtained:
[1] = Fluorescence emission of receptor compounds with increasing lactulose; conditions: phosphate buffer pH 7.4; for emission maxima: receptor 500 μM; for fluorescence intensity change on initial introduction of lactulose: lactulose 0.5 mM
Procedure: Fluorescence Measurements of exemplary boronic acid receptor compounds: Stock solutions of each boronic acid receptor compound (1-4) were initially prepared in DMS (1 mg/mL) and then diluted to desired initial 1 mM concentration before adding to the wells. Each lactulose concentration points were prepared in 0.1 M sodium phosphate buffer as 2-fold of the desired final concentration in each well. Each well received 20 μL of each receptor compound and sugar concentration (each data point recorded in triplicates) and the fluorescence measurements were conducted in a 96-well plate (Corning #3694) using a Tecan infinite M1000 instrument a plate reader (gain 100, flashes 30, z-position 1.8 cm) Plates were shaken for 30 seconds (2 mm orbital amplitude) prior to reading.
With reference to FIG. 4, panels A to D, the effect of lactulose on the fluorescent properties of each receptor compound (1-4) was examined in phosphate buffer pH 7.4. Receptor compounds (1) and (2) observed similar emission profiles with emission maxima at 504 and 490 nm, meanwhile the emission maxima for (3) and (4) was 50 nm less which peaked at 440 nm. […] These types of fluorescent changes have been previously observed by Norrild where a pyridinium moiety is directly conjugated to an anthracene core (Eggert, H.; Frederiksen, J.; Morin, C.; Norrild, J. C., Journal of Organic Chemistry 1999, 64 (11), 3846-3852). Without being bound to any particular theory, it was hypothesized that the pyridinium unit in the subject receptor compounds may act as an electron sink for the singlet electron diminishing the fluorescence intensity. Upon boronic acid-sugar recognition and subsequently conversion of the hybridization of the boron atom from sp^2 to anionic sp^3 generating a zwitterion induces an internal charge transfer (ICT)-like mechanism increasing the fluorescence intensity.

[2] = Fluorescence recovery of HPTS-receptor probes with 20 sugars; conditions: 4 μM HPTS, optimal Q:D ratio, pH 7.4, 20 sugars
Procedure: Fluorescence recovery of each anionic reporter dyes: Fluorescence recovery measurements for sugar binding studies were conducted by preparing 96-well plates with the addition of 20 μL of the boronic acid receptor-fluorophore (HPTS or TSPP) probe solution as 2-fold concentrate (for example, 160 μM for (1) & 8 μM HPTS or 800 μM for (1) & 8 μM for TSPP) in 0.1 M sodium phosphate buffer pH 7.4. At the time of running the assay, each well received 20 μL of sample in triplicate. Blank wells were given 40 μL buffer with neither HPTS nor boronic acid receptor compound. Baseline fluorescence wells contained 20 μL of buffer and 20 μL of probe solution. Fluorescence recovery of HPTS was measured on the plate reader. After blank subtraction, fluorescence intensity relative to initial quenched HPTS (F/Fo) for each sample was calculated. Under these conditions, Fo is a non-zero value after background subtraction with about 20% of maximum fluorescence intensity. […]
Each exemplary boronic acid appended naphthyl-pyridinium quencher-dye combination provided unique fluorescent recovery characteristics across all 20 sugars and sugar derivatives analyzed. […]

[3] = Absorption measurements with increasing lactulose; format: physicochemical; conditions: 0.1 M sodium phosphate buffer pH 7.4; 100 μM (1, 2), 50 μM (3, 4)
Procedure: Absorption measurements of exemplary boronic acid receptor compounds: All absorption measurements were carried out using an Agilent Technologies Cary 60 Vis instrument in a quartz cuvette (1 cm pathlength). Stock solutions (1 mg/mL) of each compound was initially prepared in DMSO and then diluted to the desired concentration in 0.1 M sodium phosphate buffer pH 7.4 which gave minimal DMSO amount of at least 15%. Concentrations for each boronic acid receptor in cuvette are as follows; (1)=100 μM, (2)=100 μM, (3)=50 μM, and (4)=50 µM. Measurements were done in situ by taking the absorbance of each receptor compound in phosphate buffer pH 7.4, then aliquots of buffered 1 M lactulose (0.5-7 μL) was added, shaken for 30 seconds, and the new absorbance was recorded. With reference to FIG. 3, panels A to D, change of absorbance for each receptor compound was monitored as a function of increasing lactulose. […] Each compound provided absorbance maxima between 300-350 nm and with isosbestic points between 330-350 nm for all four receptors. Additionally, the compounds provided molar extinction coefficients of 1.17×10^4 (100 μM), 1.10×10^4 (100 μM), 2.77×10^4 (50 μM), and 5.01×10^4 (50 μM) M^−1 cm^−1 for 1-4 respectively. Without being bound to any particular theory, these absorption changes upon sugar binding at physiological pH for compounds 1-4 is indicative of a possible charge transfer process.

[4] = Stern-Volmer quenching of HPTS anionic reporter dye; format: binding; conditions: 4 μM HPTS, 0.1 M sodium phosphate buffer pH 7.4, sphere of action quenching model
Procedure: (§1) Stern-Volmer quenching of HPTS and TSPP anionic reporter dyes: Stock solutions of exemplary boronic acid compounds (1, 3, and 4) were initially prepared in DMS (1 mg/mL) and then diluted in 0.1 M sodium phosphate buffer pH 7.4 to obtain the desired initial 2-fold concentration. Fluorescence measurements were conducted in a 96-well plate (Corning #3694) and to each well were added 20 μL of each exemplary compound and 8 μM of HPTS or TSPP in triplicate. Initial fluorescence wells contained 20 μL of each reporter dye and 20 μL of buffer. Blank wells received 40 μL of buffer only. Measurements were performed using a Tecan infinite M1000 instrument a plate reader (gain 100, flashes 30, z-position 1.8 cm) Plates were shaken for 30 seconds (2 mm orbital amplitude) prior to reading. After blank subtraction, fluorescence intensity relative to initial total fluorescence of HPTS or TSPP (Fo/F) for each sample was calculated.
(§2) Given the cationic character of the subject receptor compounds, their ability to form a non-fluorescent ground state complex with anionic reporter dyes, such as HPTS and TSPP was investigated. The fluorescence quenching of each dye can be quantitatively monitored by Stern-Volmer analysis (Albrecht, C., Anal. Bioanal. Chem. 2008, 390 (5), 1223-1224). Two types of quenching can exist, static quenching, due to complex formation, and dynamic quenching, due to collisional encounters between the dye and quencher. Based on previous work with bis-boronic acid appended viologens (BBV) and their ability to quench HPTS (Cordes, D. B.; Gamsey, S.; Sharrett, Z.; Miller, A.; Thoniyot, P.; Wessling, R. A.; Singaram, B., Langmuir 2005, 21 (14), 6540-6547), a similar quenching mechanism was envisaged for each anionic reporter dye, through static quenching. The effects of adjusting the quencher to dye ratio for HPTS and TSPP with each of compounds 1, 3, and 4 while monitoring the decrease of fluorescence for each dye are shown in FIG. 5, panel A (HPTS) and FIG. 5, panel B (TSPP).
(§3) With each of compounds 1, 3 and 4 only having two cationic groups, it was anticipated anticipated that higher (>400 μM) amounts of each quencher would be required to achieve at least 80% of quenched fluorescence. […] Using the fluorescence data, the quenching efficiency can be determined using the available Stern-Volmer fitting models. The best fit to the Stern-Volmer plots for the exemplary compounds was obtained using the sphere of action quenching model (Eq. 2) (Frank, J. M.; Vavilov, S. I., Z. Phys. 1931, 69, 100-10).
(§4) [formula] Where V is the dynamic quenching constant, Ks is the static quenching constant, [Q] is the concentration of the quencher, and […] is derived from the Poisson distribution. There was higher contribution from the static quenching given the higher static quenching constants compared to the dynamic constants (Table 1).

[5] = Stern-Volmer quenching of TSPP anionic reporter dye; format: binding; conditions: 4 μM TSPP, 0.1 M sodium phosphate buffer pH 7.4, sphere of action quenching model
Procedure: as §1, §2, §3, §4

[6] = pH profile / pKa by fluorescence spectroscopy; format: physicochemical; conditions: receptor 500 μM (2) or 250 μM (3, 4), fluorescence titration pH 3-10
Procedure: Titration curves with pH were determined using the following buffer solutions, pH 3-4 acetate buffer; pH 5-8.5 phosphate buffer; and pH 9-10 carbonate buffer. Fluorescence intensity was monitored in the absence or presence of 30 mM lactulose for exemplary receptor compounds, e.g., 2, 500 μM; 3, 250 μM; and (4, 205 µM in the indicated buffer conditions. Stock solutions of each boronic acid receptor compound (2, 3, and 4) were initially prepared in DMS (1 mg/mL) and then diluted in appropriate buffer conditions to obtain the desired initial 2-fold concentration. Fluorescence measurements were conducted in a 96-well plate (Corning #3694) and to each well 30 μL of each receptor compound and buffer media with or without lactulose were added in triplicate. Blank wells received 60 μL of buffer only. Measurements were performed using a Tecan Infinite M1000 instrument, a plate reader (gain 100, flashes 30, z-position 1.8 cm) Plates were shaken for 30 seconds (2 mm orbital amplitude) prior to reading. After blank subtraction, fluorescence intensity relative to initial total fluorescence (at pH 3).
Each pH-profile was fitted with equation S1, where y=normalized intensity, ymax=maximum normalized intensity, ymin=minimum normalized intensity, x=pH value, k=acid dissociation constant and pka values were obtained from this constant (pka=−log k).
Titration curves fitted to equation S1.

[7] = 30 mM lactulose, read-out: pka-with 30 mM lactulose
[8] = aqueous buffer solutions in a 96-well plate, no lactulose, read-out: pKa-absence of lactulose

| emission maxima [1] [nm] | change in fluorescence recovery, HPTS combination [2] [fold] | molar extinction coefficient [3] [M⁻¹ cm⁻¹] | pKa [6, 7] | pKa [6, 8] | fluorescence intensity change on initial introduction of lactulose [1] | SMILES | HPTS Ks (static quenching constant) [4] | HPTS V (dynamic quenching constant) [4] [M⁻¹] | TSPP Ks (static quenching constant) [5] | TSPP V (dynamic quenching constant) [5] [M⁻¹] |
| --- | --- | --- | --- | --- | --- | --- | --- | --- | --- | --- |
| 504 | ≥ 1.5 | 11700 |  |  |  | OB(O)c1cc(C[n+]2ccc(-c3ccc4ccccc4c3)cc2)cc(C[n+]2ccc(-c3ccc4ccccc4c3)cc2)c1 [Compound 1] | 1.01 ± 0.5 × 10^5 M^−1 | 63 ± 15 | 5.24 ± 0.3 × 10^4 M^−1 | 112 ± 46 |
| 490 |  | 11000 | 5.5 ± 0.06 | 7.7 ± 0.08 |  | OB(O)c1ccccc1C[n+]1ccc(-c2ccc3ccccc3c2)cc1.[Br-] [Compound 2, 1-(2-boronobenzyl)-4-(naphthalen-2-yl) pyridinium bromide] |  |  |  |  |
| 440 |  | 27700 | 5.8 ± 0.1 | 7.8 ± 0.03 | drastic intensity change | OB(O)c1ccccc1C[n+]1ccc(-c2ccc3cc(-c4cc[n+](Cc5ccccc5B(O)O)cc4)ccc3c2)cc1 [Compound 3] | 9.29 ± 0.4 × 10^4 M^−1 | 109 ± 18 | 5.01 ± 0.7 × 10^4 M^−1 | 68 ± 13 |
| 440 |  | 50100 | 5.7 ± 0.05 | 8.2 ± 0.02 | drastic intensity change | OB(O)c1ccccc1C[n+]1ccc(-c2ccc3ccc(-c4cc[n+](Cc5ccccc5B(O)O)cc4)cc3c2)cc1 [Compound 4] | 1.00 ± 0.9 × 10^5 M^−1 | 100 ± 14 | 1.45 ± 0.1 × 10^4 M^−1 | 80 ± 10 |
